# Test results published in PubChem BioAssay (NCI).
#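 In this assay, cells in 96-well plates receive the compound at five concentrations for 48 hours. Endpoints are linearly interpolated between the surrounding concentrations. TGI marks complete inhibition of growth.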
# Key:
# Experiment in all cases: DTP human tumour cell line panel, 48 h
# HOP-92 NSCLC = system: HOP-92 NSCLC
# TK-10 renal = system: TK-10 renal
# NCI/ADR-RES ovarian = system: NCI/ADR-RES ovarian
# MDA-N = system: MDA-N
# SK-MEL-5 melanoma = system: SK-MEL-5 melanoma
# HS 578T breast = system: HS 578T breast
# UACC-257 melanoma = system: UACC-257 melanoma
# HOP-62 NSCLC = system: HOP-62 NSCLC
# SF-268 CNS = system: SF-268 CNS
# MDA-MB-231 breast = system: MDA-MB-231 breast
# RPMI-8226 leukemia = system: RPMI-8226 leukemia
# NCI-H522 lung = system: NCI-H522 lung
# SW-620 colon = system: SW-620 colon
# MCF7 breast = system: MCF7 breast
# PC-3 prostate = system: PC-3 prostate
# COLO 205 colon = system: COLO 205 colon
# K-562 leukemia = system: K-562 leukemia
# U251 CNS = system: U251 CNS
# UACC-62 melanoma = system: UACC-62 melanoma
# MALME-3M melanoma = system: MALME-3M melanoma
# OVCAR-4 ovarian = system: OVCAR-4 ovarian
# 786-0 renal = system: 786-0 renal
# SK-MEL-28 melanoma = system: SK-MEL-28 melanoma
# IGROV1 ovarian = system: IGROV1 ovarian
# KM12 colon = system: KM12 colon
# SNB-75 CNS = system: SNB-75 CNS
# NCI-H226 lung = system: NCI-H226 lung
# HT29 colon = system: HT29 colon
# HL-60(TB) leukemia = system: HL-60(TB) leukemia
# EKVX NSCLC = system: EKVX NSCLC
# SK-OV-3 ovarian = system: SK-OV-3 ovarian
# M14 melanoma = system: M14 melanoma
# SK-MEL-2 melanoma = system: SK-MEL-2 melanoma
# SN12C renal = system: SN12C renal
# CCRF-CEM leukemia = system: CCRF-CEM leukemia
# RXF 393 renal = system: RXF 393 renal
# HCC-2998 colon = system: HCC-2998 colon
# OVCAR-5 ovarian = system: OVCAR-5 ovarian
# MDA-MB-435 = system: MDA-MB-435
# NCI-H460 lung = system: NCI-H460 lung
# BT-549 breast = system: BT-549 breast
# ACHN renal = system: ACHN renal
# SF-295 CNS = system: SF-295 CNS
# LOX IMVI melanoma = system: LOX IMVI melanoma
# SF-539 CNS = system: SF-539 CNS
# OVCAR-8 ovarian = system: OVCAR-8 ovarian
# SNB-19 CNS = system: SNB-19 CNS
# CAKI-1 renal = system: CAKI-1 renal
# A549 NSCLC = system: A549 NSCLC
# HCT-15 colon = system: HCT-15 colon
# HCT-116 colon = system: HCT-116 colon
# MOLT-4 leukemia = system: MOLT-4 leukemia
# A498 renal = system: A498 renal
# SR leukemia = system: SR leukemia
# DU-145 prostate = system: DU-145 prostate
# NCI-H23 lung = system: NCI-H23 lung
# T-47D breast = system: T-47D breast
smiles,measurement,setting,value
Cc1ccc(-c2c(C#N)c(-c3ccc(N(C)C)cc3)c(C#N)c(=O)n2NS(=O)(=O)c2ccccc2)cc1,TGI,HOP-92 NSCLC,> 100 µM
same,TGI,TK-10 renal,> 100 µM
same,TGI,NCI/ADR-RES ovarian,> 100 µM
same,TGI,MDA-N,> 100 µM
same,TGI,SK-MEL-5 melanoma,36.8 µM
same,TGI,HS 578T breast,> 100 µM
same,TGI,UACC-257 melanoma,> 100 µM
same,TGI,HOP-62 NSCLC,> 100 µM
same,TGI,SF-268 CNS,> 100 µM
same,TGI,MDA-MB-231 breast,> 100 µM
same,TGI,RPMI-8226 leukemia,33.2 µM
same,TGI,NCI-H522 lung,> 100 µM
same,TGI,SW-620 colon,> 100 µM
same,TGI,MCF7 breast,> 100 µM
same,TGI,PC-3 prostate,> 100 µM
same,TGI,COLO 205 colon,> 100 µM
same,TGI,K-562 leukemia,> 100 µM
same,TGI,U251 CNS,> 100 µM
same,TGI,UACC-62 melanoma,> 100 µM
same,TGI,MALME-3M melanoma,> 100 µM
same,TGI,OVCAR-4 ovarian,> 100 µM
same,TGI,786-0 renal,> 100 µM
same,TGI,SK-MEL-28 melanoma,> 100 µM
same,TGI,IGROV1 ovarian,> 100 µM
same,TGI,KM12 colon,> 100 µM
same,TGI,SNB-75 CNS,> 100 µM
same,TGI,NCI-H226 lung,> 100 µM
same,TGI,HT29 colon,> 100 µM
same,TGI,HL-60(TB) leukemia,> 100 µM
same,TGI,EKVX NSCLC,> 100 µM
same,TGI,SK-OV-3 ovarian,> 100 µM
same,TGI,M14 melanoma,> 100 µM
same,TGI,SK-MEL-2 melanoma,> 100 µM
same,TGI,SN12C renal,> 100 µM
same,TGI,CCRF-CEM leukemia,96.3 µM
same,TGI,RXF 393 renal,68.1 µM
same,TGI,HCC-2998 colon,> 100 µM
same,TGI,OVCAR-5 ovarian,> 100 µM
same,TGI,MDA-MB-435,> 100 µM
same,TGI,NCI-H460 lung,> 100 µM
same,TGI,BT-549 breast,> 100 µM
same,TGI,ACHN renal,> 100 µM
same,TGI,SF-295 CNS,> 100 µM
same,TGI,LOX IMVI melanoma,> 100 µM
same,TGI,SF-539 CNS,83.4 µM
same,TGI,OVCAR-8 ovarian,> 100 µM
same,TGI,SNB-19 CNS,> 100 µM
same,TGI,CAKI-1 renal,98.3 µM
same,TGI,A549 NSCLC,> 100 µM
same,TGI,HCT-15 colon,> 100 µM
same,TGI,HCT-116 colon,> 100 µM
same,TGI,MOLT-4 leukemia,52.8 µM
same,TGI,A498 renal,> 100 µM
Cc1c(CCN=P(c2ccccc2)(c2ccccc2)c2ccccc2)c(=O)n2c([nH]c3ccccc32)c1C#N,TGI,TK-10 renal,> 10 µM
same,TGI,MDA-N,> 10 µM
same,TGI,SK-MEL-5 melanoma,> 10 µM
same,TGI,SR leukemia,> 10 µM
same,TGI,UACC-257 melanoma,> 10 µM
same,TGI,HOP-62 NSCLC,> 10 µM
same,TGI,SF-268 CNS,> 10 µM
same,TGI,MDA-MB-231 breast,> 10 µM
same,TGI,RPMI-8226 leukemia,> 10 µM
same,TGI,SW-620 colon,> 10 µM
same,TGI,MCF7 breast,> 10 µM
same,TGI,PC-3 prostate,> 10 µM
same,TGI,COLO 205 colon,> 10 µM
same,TGI,K-562 leukemia,> 10 µM
same,TGI,DU-145 prostate,> 10 µM
same,TGI,UACC-62 melanoma,> 10 µM
same,TGI,MALME-3M melanoma,> 10 µM
same,TGI,786-0 renal,> 10 µM
same,TGI,SK-MEL-28 melanoma,> 10 µM
same,TGI,IGROV1 ovarian,> 10 µM
same,TGI,KM12 colon,> 10 µM
same,TGI,SNB-75 CNS,> 10 µM
same,TGI,HT29 colon,> 10 µM
same,TGI,HL-60(TB) leukemia,> 10 µM
same,TGI,EKVX NSCLC,> 10 µM
same,TGI,SK-OV-3 ovarian,> 10 µM
same,TGI,M14 melanoma,> 10 µM
same,TGI,SN12C renal,> 10 µM
same,TGI,CCRF-CEM leukemia,> 10 µM
same,TGI,RXF 393 renal,> 10 µM
same,TGI,HCC-2998 colon,> 10 µM
same,TGI,SF-295 CNS,> 10 µM
same,TGI,LOX IMVI melanoma,> 10 µM
same,TGI,NCI-H23 lung,> 10 µM
same,TGI,OVCAR-8 ovarian,> 10 µM
same,TGI,CAKI-1 renal,> 10 µM
same,TGI,A549 NSCLC,> 10 µM
same,TGI,T-47D breast,> 10 µM
same,TGI,HCT-15 colon,> 10 µM
same,TGI,MOLT-4 leukemia,> 10 µM
